*1 amine or outer side, *2 acyl side, *3 side chain or, on linkers, in order; H or OH if unused. Where a SMILES comes first, the peptide text is derived from it. Where no end group is shown, it is not given here. [ ]: non-standard residue; d: D form. The star is where a group is joined. X1 = O=C([C@@]1(O)C[C@@H](O)[C@H](N[*:1])C([C@@H](O)[C@@H](O)CO)O1)[*:2]; Trp(1-Me) = Cn1cc(C[C@H](N)C(=O)O)c2ccccc21; NMeW = CN[C@@H](Cc1c[nH]c2ccccc12)C(=O)O; Phe(3-Br) = N[C@@H](Cc1cccc(Br)c1)C(=O)O; dNMeW = CN[C@H](Cc1c[nH]c2ccccc12)C(=O)O; Fmoc = O=C(OCC1c2ccccc2-c2ccccc21)*; Aad = N[C@@H](CCCC(=O)O)C(=O)O; Aoc(2) = CCCCCC[C@H](N)C(=O)O; Nle = CCCC[C@H](N)C(=O)O; Cbz = O=C(OCc1ccccc1)*
Key:
[1] = molecular target: T1, CCK-B receptors (CHO-CCK) (Homo sapiens, UniProt P32239); assay: Calcium flux (Fluo-8) antagonist test on CHO-CCK model cells in presence of CCK8; type: cell-based
T1 construct: expressed in transfected cells; host or cells: CHO (CHO-CCK model cells)
T1 sequence (P32239 1-447): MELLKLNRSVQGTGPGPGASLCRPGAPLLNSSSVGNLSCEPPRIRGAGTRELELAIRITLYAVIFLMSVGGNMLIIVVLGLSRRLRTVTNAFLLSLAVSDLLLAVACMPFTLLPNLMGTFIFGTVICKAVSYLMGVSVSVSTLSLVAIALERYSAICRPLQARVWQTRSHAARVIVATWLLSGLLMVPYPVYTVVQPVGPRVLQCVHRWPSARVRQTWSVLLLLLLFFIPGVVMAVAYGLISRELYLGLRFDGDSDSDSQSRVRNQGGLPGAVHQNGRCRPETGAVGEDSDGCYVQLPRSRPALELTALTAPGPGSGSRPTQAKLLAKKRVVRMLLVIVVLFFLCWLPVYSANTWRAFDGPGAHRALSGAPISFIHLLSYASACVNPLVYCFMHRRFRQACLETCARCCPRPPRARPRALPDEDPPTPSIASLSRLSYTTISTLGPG
Protocol: The compound was formulated to a 10 mM mother liquor with DMSO, and then diluted into a series of 9 concentrations with a 3-fold gradient to form a 1000× stock solution. […] Prepare 1×Fluo-8 analysis buffer: mix 9 mL of HHBS, 1 mL of 10× Pluronic F127 Plus and 20 μL of Fluo-8 thoroughly for later use. • 3. Add Fluo-8 dye working solution to the cell plate, 100 μL/well. First incubate in a 37° C. incubator for 30 min, and then take it out and incubate at room temperature in the dark for 30 min. • 4. In the process of incubating cells, the compounds to be detected were prepared with HHBS. • 5. […] The agonism/antagonism EC50 of the compound can be obtained by plotting the fitting curve with the agonism/antagonism percentage as Y-axis and the concentration of the compound as X-axis.

[2] = molecular target: T1, CCK-B receptors (CHO-CCK); assay: Calcium flux (Fluo-8) agonist test on CHO-CCK model cells; type: cell-based; settings: for EC50 / % Act-Ave @ 1 nM / % Act-Ave @ 50 nM: CHO-CCK cells; for % Act-Ave @ 1 nM: compound at 1 nM; for % Act-Ave @ 50 nM: compound at 50 nM
In short: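 Agonist-mode Fluo-8 calcium flux read on CHO-CCK cells after dye loading 30 min at 37 °C plus 30 min at room temperature.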

[3] = Fluo-8 calcium flux, 100% control = 20 nM CCK8

| Compound | % Act-Ave @ 1 nM [2] [%] | % Act-Ave @ 50 nM [2] [%] | further results |
| --- | --- | --- | --- |
| CSCC[C@H](NC(=O)[C@H](N)Cc1c[nH]c2ccccc12)C(=O)N[C@@H](CC(=O)O)C(=O)N[C@@H](Cc1ccccc1[N+](=O)[O-])C(N)=O [HT-24, D-Trp-Met-Asp-Phe(2-NO2)-NH2] | – | – | EC50 ([1]; compound together with 10 nM CCK8): 0.624 µM; EC50 ([2]; compound alone, 100% = 20 nM CCK8): 0.206 µM; Agonistic Activity (%) at 10 μM ([2]; compound at 10 μM, percentage of signal of 20 nM CCK8 alone): 50.60% |
| CSCC[C@H](NC(=O)[C@H](Cc1c[nH]c2ccccc12)NC(C)=O)C(=O)N[C@@H](CC(=O)O)C(=O)N[C@@H](CCC(=O)O)C(N)=O [HT-197, Ac-Trp-Met-Asp-Gln-NH2] | – | – | EC50 ([1]; in presence of 10 nM CCK8): 1.67 µM |
| CCCC[C@H](NC(=O)[C@H](Cc1c[nH]c2ccccc12)N(C)C(=O)OCC1c2ccccc2-c2ccccc21)C(=O)N[C@@H](CC(=O)O)C(=O)N[C@@H](Cc1cccc(Br)c1)C(N)=O [HT-268, Fmoc-(N-Me-Trp)-Nle-Asp-Phe(3-Br)-NH2] (Fmoc-[NMeW][Nle]D[Phe(3-Br)]-NH2) | – | – | EC50 [2, 3]: 0.0013 µM |
| CCCC[C@H](NC(=O)[C@H](Cc1c[nH]c2ccccc12)N(C)C(C)=O)C(=O)N[C@@H](CC(=O)O)C(=O)N[C@@H](Cc1cccc(Br)c1)C(N)=O [HT-269, Ac-(N-Me-Trp)-Nle-Asp-Phe(3-Br)-NH2] (Ac-[NMeW][Nle]D[Phe(3-Br)]-NH2) | 0.05 | 33.52 | – |
| CCCC[C@H](NC(=O)[C@@H](Cc1c[nH]c2ccccc12)N(C)C(C)=O)C(=O)N[C@@H](CCCC(=O)O)C(=O)N[C@@H](Cc1cccc(Br)c1)C(N)=O [HT-270, Ac-D-Trp-Nle-Aa-Phe(3-Br)-NH2] (Ac-[dNMeW][Nle][Aad][Phe(3-Br)]-NH2) | −0.03 | 80.85 | – |
| CCCC[C@H](NC(=O)[C@H](Cc1c[nH]c2ccccc12)N(C)C(C)=O)C(=O)N[C@@H](CCCC(=O)O)C(=O)N[C@@H](Cc1cccc(Br)c1)C(N)=O [HT-271, Ac-Trp-Nle-Aa-Phe(3-Br)-NH2] (Ac-[NMeW][Nle][Aad][Phe(3-Br)]-NH2) | 40.66 | 104.56 | – |
| CCCC[C@H](NC(=O)[C@H](Cc1c[nH]c2ccccc12)N(C)C(C)=O)C(=O)N[C@@H](CCCC(=O)O)C(=O)N[C@@H](Cc1cccc(Br)c1)C(N)=O [HT-272, Ac-(N-Me-Trp)-Nle-Aa-Phe(3-Br)-NH2] (Ac-[NMeW][Nle][Aad][Phe(3-Br)]-NH2) | −0.33 | 86.09 | – |
| CCCC[C@H](NC(=O)[C@H](Cc1c[nH]c2ccccc12)N(C)C(C)=O)C(=O)N[C@@H](CC(=O)O)C(=O)N[C@@H](Cc1cccc(Br)c1)C(N)=O [HT-273, Ac-(N-Me-Trp)-Nle-Asp-Phe(3-Br)-NH2] (Ac-[NMeW][Nle]D[Phe(3-Br)]-NH2) | 52.14 | 96.54 | – |
| CCCC[C@H](NC(=O)[C@H](Cc1c[nH]c2ccccc12)N(C)C(=O)[C@@]1(O)C[C@@H](O)[C@H](NC(C)=O)C([C@@H](O)[C@@H](O)CO)O1)C(=O)N[C@@H](CC(=O)O)C(=O)N[C@@H](Cc1cccc(Br)c1)C(N)=O (some centres unmarked) [HT-274, Sia-(N-Me-Trp)-Nle Asp-Phe(3-Br)-NH2] (Ac-[X1][NMeW][Nle]D[Phe(3-Br)]-NH2) | 0.10 | 72.88 | – |
| CCCC[C@H](NC(=O)[C@H](Cc1c[nH]c2ccccc12)N(C)C(=O)[C@@]1(O)C[C@@H](O)[C@H](NC(C)=O)C([C@@H](O)[C@@H](O)CO)O1)C(=O)N[C@@H](CCCC(=O)O)C(=O)N[C@@H](Cc1cccc(Br)c1)C(N)=O (some centres unmarked) [HT-275, Trp)-Nle-Aa-Phe(3-Br)-NH2] (Ac-[X1][NMeW][Nle][Aad][Phe(3-Br)]-NH2) | 62.28 | 100.24 | – |
| CCCC[C@H](NC(=O)[C@H](Cc1c[nH]c2ccccc12)N(C)C(=O)[C@@H](N)CCC(=O)O)C(=O)N[C@@H](CCCC(=O)O)C(=O)N[C@@H](Cc1cccc(Br)c1)C(N)=O [HT-277, Glu-(N-Me-Trp)-Nle-Aa-Phe(3-Br)-NH2] (H-E[NMeW][Nle][Aad][Phe(3-Br)]-NH2) | −0.13 | 13.46 | – |
| CCCC[C@H](NC(=O)[C@H](Cc1c[nH]c2ccccc12)N(C)C(=O)[C@@]1(O)C[C@@H](O)[C@H](NC(C)=O)C([C@@H](O)[C@@H](O)CO)O1)C(=O)N[C@@H](CC(=O)O)C(=O)N[C@@H](Cc1cccc(Br)c1)C(N)=O (stereo partly drawn) [HT-278, Sia-(N-Me-Trp)-Nle-Asp-Phe(3-Br)-NH2] (Ac-[X1][NMeW][Nle]D[Phe(3-Br)]-NH2) | 40.85 | 93.12 | – |
| CCCCCC[C@H](NC(=O)[C@H](Cc1cn(C)c2ccccc12)NC(=O)OCc1ccccc1)C(=O)N[C@@H](CC(=O)O)C(=O)N[C@@H](Cc1cccc(Br)c1)C(N)=O [HT-279, Cbz-(1-Me-Trp)-Oa-Asp-Phe(3-Br)-NH2] (Cbz-[Trp(1-Me)][Aoc(2)]D[Phe(3-Br)]-NH2) | −0.19 | 90.99 | – |
| CSCC[C@H](NC(C)=O)C(=O)N[C@@H](CC(=O)O)C(=O)N[C@@H](Cc1ccccc1)C(N)=O [HT-280, Ac-Met-Asp-Phe-NH2] (Ac-Met-Asp-Phe-NH2) | −0.33 | −0.16 | – |
| CCCCCC[C@H](NC(C)=O)C(=O)N[C@@H](CC(=O)O)C(=O)N[C@@H](Cc1cccc(Br)c1)C(N)=O [HT-281, Ac-Oa-Asp-Phe(3-Br)-NH2] (Ac-[Aoc(2)]-Asp-[Phe(3-Br)]-NH2) | −0.09 | 0.03 | – |
| CSCC[C@H](NC(C)=O)C(=O)N[C@@H](CC(=O)O)C(=O)N[C@@H](Cc1cccc(Br)c1)C(N)=O [HT-282, Ac-Met-Asp-Phe(3-Br)-NH2] (Ac-Met-Asp-[Phe(3-Br)]-NH2) | 0.13 | 0.45 | – |
| CCCC[C@H](NC(C)=O)C(=O)N[C@@H](CC(=O)O)C(=O)N[C@@H](Cc1cccc(Br)c1)C(N)=O [HT-283, Ac-Nle-Asp-Phe(3-Br)-NH2] (Ac-[Nle]-Asp-[Phe(3-Br)]-NH2) | −0.04 | −0.03 | – |
| CC(=O)N[C@@H](CC(=O)O)C(=O)N[C@@H](Cc1ccccc1)C(N)=O [HT-284, Ac-Asp-Phe-NH2] (Ac-Asp-Phe-NH2) | 0.01 | 0.09 | – |
| C[C@@H](NC(=O)[C@H](Cc1cccc(Br)c1)NC(=O)[C@H](CC(=O)O)NC(=O)[C@H](CCCCN)NC(=O)[C@H](N)Cc1c[nH]c2ccccc12)C(N)=O [HT-288, D-Trp-Lys-Asp-Phe(3-Br)-D-Ala-NH2] (H-[dW]KD[Phe(3-Br)][dA]-NH2) | – | – | EC50 ([2]; Fluo-8 calcium flux, bound in μM): > 10 µM |
| CC(C)C[C@H](NC(=O)[C@H](N)Cc1c[nH]c2ccccc12)C(=O)N[C@@H](CC(=O)O)C(=O)N[C@@H](Cc1cccc(Br)c1)C(=O)N[C@H](C)C(N)=O [HT-289, D-Trp-Val-Asp-Phe(3-Br)-D-Ala-NH2] | – | – | EC50 [2, 3]: 3.19 µM |
| CSCC[C@H](NC(=O)[C@H](N)Cc1c[nH]c2ccccc12)C(=O)N[C@@H](CC(=O)O)C(=O)N[C@@H](Cc1cccc(Br)c1)C(=O)N[C@H](C)C(N)=O [HT-290, D-Trp-Met-Asp-Phe(3-Br)-D-Ala-NH2] (H-[dW]MD[Phe(3-Br)][dA]-NH2) | – | – | EC50 [2, 3]: 6.68 µM |
| CSCC[C@@H]1NC(=O)[C@H](Cc2c[nH]c3ccccc23)NCCC(=O)CNC(=O)CNC(=O)CNC(=O)CNC(=O)[C@H](Cc2cccc(Br)c2)NC(=O)[C@H](CC(=O)O)NC1=O [HT-291, cyclo(Trp-Met-Asp-Phe(3-Br)-Gly-Gly-Gly-Gly)] | – | – | EC50 [2, 3]: 10.6 µM |
| CSCC[C@H](NC(=O)[C@H](Cc1c[nH]c2ccccc12)NC(=O)[C@@H](C)N)C(=O)N[C@@H](CC(=O)O)C(=O)N[C@@H](Cc1cccc(Br)c1)C(=O)N[C@H](C)C(N)=O [HT-292, D-Ala-Trp-Met-Asp-Phe(3-Br)-D-Ala-NH2] (H-[dA]WMD[Phe(3-Br)][dA]-NH2) | – | – | EC50 [2, 3]: 1.45 µM |
| HHHHHHSSGGDYMGWKDF-NH2 [HT-287] | 77.83 | 99.10 | – |
| HHHHHHSSGGWKDF-NH2 [HT-286] | −0.40 | −0.52 | – |
